From PubChem BioAssay AID256 (DTP/NCI, 2004)
Values joined by “and” are separate entries in the source; they are usually repeats but may differ in a detail not shown here. Equal values may be shown once. Inconclusive results and toxic doses are left out. Rule for the calls: active = survival T/C of 150% or more; inactive = T/C below 125% in these data.

Test system: CD2F1 mice, L1210 leukemia ip, survival T/C
Test: NCI In Vivo Anticancer Drug Screen. Data for tumor model L1210 Leukemia (intraperitoneal) in CD2F1 (CDF1) mice
Conditions: higher = longer survival
Method in brief: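 Mice carrying a transplanted tumor received test compound or vehicle alone. The value is the measurement in the treated group divided by that in the vehicle-treated control group.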

[1] = endpoint: mean survival time, dose: 100.0 mg/kg/injection, schedule: Q01DX009 (ip), vehicle: saline with Tween-80
[2] = endpoint: mean survival time, dose: 100.0 mg/kg/injection, schedule: Q04DX003 (ip), vehicle: saline with Tween-80
[3] = endpoint: mean survival time, dose: 200.0 mg/kg/injection, schedule: Q01DX009 (ip), vehicle: saline with Tween-80
[4] = endpoint: mean survival time, dose: 400.0 mg/kg/injection, schedule: Q01DX009 (ip), vehicle: saline with Tween-80
[5] = endpoint: mean survival time, dose: 50.0 mg/kg/injection, schedule: Q01DX009 (ip), vehicle: saline with Tween-80
[6] = endpoint: mean survival time, dose: 100.0 mg/kg/injection, schedule: Q01DX009 (ip), vehicle: saline
[7] = endpoint: mean survival time, dose: 200.0 mg/kg/injection, schedule: Q01DX009 (ip), vehicle: saline
[8] = endpoint: mean survival time, dose: 400.0 mg/kg/injection, schedule: Q01DX009 (ip), vehicle: saline
[9] = endpoint: mean survival time, dose: 100.0 mg/kg/injection, schedule: Q04DX002 (ip), vehicle: saline with Tween-80
[10] = endpoint: mean survival time, dose: 100.0 mg/kg/injection, schedule: Q01DX001 (ip), vehicle: saline with Tween-80
[11] = endpoint: mean survival time, dose: 200.0 mg/kg/injection, schedule: Q01DX001 (ip), vehicle: saline with Tween-80
[12] = endpoint: mean survival time, dose: 400.0 mg/kg/injection, schedule: Q01DX001 (ip), vehicle: saline with Tween-80
[13] = endpoint: mean survival time, dose: 100.0 mg/kg/injection, schedule: Q04DX003 (ip), vehicle: other
[14] = endpoint: mean survival time, dose: 200.0 mg/kg/injection, schedule: Q04DX003 (ip), vehicle: other
[15] = endpoint: mean survival time, dose: 400.0 mg/kg/injection, schedule: Q04DX003 (ip), vehicle: other
[16] = endpoint: mean survival time, dose: 12.5 mg/kg/injection, schedule: Q01DX009 (ip), vehicle: saline
[17] = endpoint: mean survival time, dose: 25.0 mg/kg/injection, schedule: Q01DX009 (ip), vehicle: saline
[18] = endpoint: mean survival time, dose: 50.0 mg/kg/injection, schedule: Q01DX009 (ip), vehicle: saline

Measured: T/C

O=C(/C=C/c1cccnc1)/C=C/c1cccnc1
inactive: endpoint: mean survival time, dose: 6.25 mg/kg/injection, schedule: Q01DX009 (ip), vehicle: other 105 % of control | endpoint: mean survival time, dose: 12.5 mg/kg/injection, schedule: Q01DX009 (ip), vehicle: other 105 % of control | endpoint: mean survival time, dose: 12.5 mg/kg/injection, schedule: Q04DX003 (ip), vehicle: acetone 104 % of control | endpoint: mean survival time, dose: 25.0 mg/kg/injection, schedule: Q01DX009 (ip), vehicle: other 107 % of control | endpoint: mean survival time, dose: 25.0 mg/kg/injection, schedule: Q04DX003 (ip), vehicle: acetone 103 % of control | endpoint: median survival time, dose: 3.13 mg/kg/injection, schedule: Q01DX005 (ip), vehicle: Klucel (hydroxypropylcellulose) (HPC) 102 % of control | endpoint: median survival time, dose: 6.25 mg/kg/injection, schedule: Q01DX005 (ip), vehicle: Klucel (hydroxypropylcellulose) (HPC) 97 % of control | endpoint: median survival time, dose: 12.5 mg/kg/injection, schedule: Q01DX005 (ip), vehicle: Klucel (hydroxypropylcellulose) (HPC) 95 % of control | endpoint: median survival time, dose: 25.0 mg/kg/injection, schedule: Q01DX005 (ip), vehicle: Klucel (hydroxypropylcellulose) (HPC) 98 % of control | endpoint: median survival time, dose: 50.0 mg/kg/injection, schedule: Q01DX005 (ip), vehicle: Klucel (hydroxypropylcellulose) (HPC) 100 % of control

OC(CCCCl)CC(O)(C(F)(F)F)C(F)(F)F (stereo not given)
inactive: [1] 102 % of control | [2] 108 % of control | [3] 94 % of control | endpoint: mean survival time, dose: 200.0 mg/kg/injection, schedule: Q04DX003 (ip), vehicle: saline with Tween-80 89 % of control | [4] 86 % of control | endpoint: mean survival time, dose: 400.0 mg/kg/injection, schedule: Q04DX003 (ip), vehicle: saline with Tween-80 94 % of control

COC1=CC(=O)C(OC)=C(OC)C1=O
inactive: endpoint: mean survival time, dose: 3.12 mg/kg/injection, schedule: Q01DX009 (ip), vehicle: saline with Tween-80 94 % of control | endpoint: mean survival time, dose: 6.25 mg/kg/injection, schedule: Q01DX009 (ip), vehicle: saline with Tween-80 97 % of control | endpoint: mean survival time, dose: 12.5 mg/kg/injection, schedule: Q01DX009 (ip), vehicle: saline with Tween-80 97 % of control | endpoint: mean survival time, dose: 25.0 mg/kg/injection, schedule: Q01DX009 (ip), vehicle: saline with Tween-80 100 % of control | [5] 105 % of control

CS/C(N)=N\S(=O)(=O)c1ccc(NC(C)=O)cc1
inactive: [1] 98 % of control | [3] 95 % of control | [4] 106 % of control

CCCc1ccc(C(C)=O)cc1
inactive: endpoint: mean survival time, dose: 75.0 mg/kg/injection, schedule: Q04DX002 (ip), vehicle: saline with Tween-80 112 % of control | endpoint: mean survival time, dose: 150.0 mg/kg/injection, schedule: Q04DX002 (ip), vehicle: saline with Tween-80 100 % of control

c1ccc(Cc2ccccn2)nc1
inactive: [6] 110 % of control | [7] 101 % of control | [8] 90 % of control

CN(C)C(=O)Nc1cccc2ccccc12
inactive: [9] 94 % of control | endpoint: mean survival time, dose: 200.0 mg/kg/injection, schedule: Q04DX002 (ip), vehicle: saline with Tween-80 105 % of control | endpoint: mean survival time, dose: 400.0 mg/kg/injection, schedule: Q04DX002 (ip), vehicle: saline with Tween-80 90 % of control

Cc1cccc(Cl)c1NC(=O)Nc1ccc(C(=O)O)c(O)c1
inactive: [1] 97 % of control | [3] 103 % of control | [4] 114 % of control

O=C(Nc1cc(Cl)c(Cl)cc1Cl)Nc1cc(Cl)ccc1Oc1ccc(Cl)cc1S(=O)(=O)O
inactive: [10] 96 % of control | [11] 98 % of control

CC(=O)OC1(C)CC(C)C(=O)C(C(O)CC2CC(=O)NC(=O)C2)C1 (stereo not given)
inactive: endpoint: mean survival time, dose: 0.03 mg/kg/injection, schedule: Q01DX009 (ip), vehicle: saline 103 % of control | endpoint: mean survival time, dose: 0.04 mg/kg/injection, schedule: Q01DX009 (ip), vehicle: saline 94 % of control | endpoint: mean survival time, dose: 0.06 mg/kg/injection, schedule: Q01DX009 (ip), vehicle: saline 105 % of control and 107 % of control | endpoint: mean survival time, dose: 0.13 mg/kg/injection, schedule: Q01DX009 (ip), vehicle: saline 114 % of control

CC(C)(C)C1=Nc2ccccc2[Si]1(C)C
inactive: [10] 98 % of control | [11] 102 % of control | [12] 95 % of control

CC(=O)Nc1ncc2ccccc2c1-c1ccc(NC(=O)CN(CCO)CCO)cc1
inactive: endpoint: mean survival time, dose: 25.0 mg/kg/injection, schedule: Q04DX003 (ip), vehicle: other 104 % of control | endpoint: mean survival time, dose: 50.0 mg/kg/injection, schedule: Q04DX003 (ip), vehicle: other 108 % of control | [13] 100 % of control | [14] 96 % of control | [15] 104 % of control

CC(C)(C)OC(=O)N1CCCC1C(=O)Oc1ccc([N+](=O)[O-])cc1 (stereo not given)
inactive: endpoint: mean survival time, dose: 25.0 mg/kg/injection, schedule: Q04DX003 (ip), vehicle: saline with Tween-80 98 % of control | endpoint: mean survival time, dose: 50.0 mg/kg/injection, schedule: Q04DX003 (ip), vehicle: saline with Tween-80 95 % of control | [2] 92 % of control and 93 % of control

NS(=O)(=O)c1ccc(Cl)c(Cl)c1
inactive: [1] 108 % of control | [3] 111 % of control

COC(=O)NC(/C=C/c1ccccc1)c1ccccc1 (stereo not given)
inactive: [13] 94 % of control | [14] 97 % of control | [15] 97 % of control

CC1CCC(C(C)C)C(OC(=O)N/N=C/N(C)C)C1 (stereo not given)
inactive: endpoint: mean survival time, dose: 100.0 mg/kg/injection, schedule: Q01DX009 (ip), vehicle: other 95 % of control | endpoint: mean survival time, dose: 200.0 mg/kg/injection, schedule: Q01DX009 (ip), vehicle: other 119 % of control

CC(C)OC(=S)S
inactive: [6] 101 % of control | endpoint: mean survival time, dose: 100.0 mg/kg/injection, schedule: Q04DX003 (ip), vehicle: saline 100 % of control | [7] 102 % of control | endpoint: mean survival time, dose: 200.0 mg/kg/injection, schedule: Q04DX003 (ip), vehicle: saline 97 % of control | [8] 107 % of control | endpoint: mean survival time, dose: 400.0 mg/kg/injection, schedule: Q04DX003 (ip), vehicle: saline 88 % of control

CCCCCCCCC(CCCCCCCC)CCCC1CCCC1
inactive: [10] 95 % of control | [11] 110 % of control | [12] 103 % of control

CCN(CC)CCN(C)N=Nc1ccccc1C(=O)NN
inactive: endpoint: mean survival time, dose: 72.0 mg/kg/injection, schedule: Q01DX001 (ip), vehicle: saline 105 % of control | endpoint: mean survival time, dose: 145.0 mg/kg/injection, schedule: Q01DX001 (ip), vehicle: saline 100 % of control

Fc1ccc(NC(=S)SCc2ccc(Cl)c(Cl)c2)cc1F
inactive: [16] 98 % of control | endpoint: mean survival time, dose: 12.5 mg/kg/injection, schedule: Q01DX009 (ip), vehicle: suspension in saline 98 % of control | [17] 101 % of control | endpoint: mean survival time, dose: 25.0 mg/kg/injection, schedule: Q01DX009 (ip), vehicle: suspension in saline 108 % of control | endpoint: mean survival time, dose: 50.0 mg/kg/injection, schedule: Q01DX009 (ip), vehicle: Klucel (hydroxypropylcellulose) (HPC) 112 % of control | [18] 98 % of control | endpoint: mean survival time, dose: 50.0 mg/kg/injection, schedule: Q01DX009 (ip), vehicle: suspension in saline 103 % of control | endpoint: mean survival time, dose: 100.0 mg/kg/injection, schedule: Q01DX009 (ip), vehicle: Klucel (hydroxypropylcellulose) (HPC) 107 % of control | [6] 95 % of control | endpoint: mean survival time, dose: 100.0 mg/kg/injection, schedule: Q01DX009 (ip), vehicle: suspension in saline 104 % of control | endpoint: mean survival time, dose: 200.0 mg/kg/injection, schedule: Q01DX009 (ip), vehicle: Klucel (hydroxypropylcellulose) (HPC) 91 % of control

O=COC1CC2CC1C1CCCC21 (stereo not given)
inactive: [5] 95 % of control | [1] 93 % of control | [3] 97 % of control

O=C(O)C1(Br)CCC1
inactive: endpoint: mean survival time, dose: 12.5 mg/kg/injection, schedule: Q01DX005 (ip), vehicle: saline with Tween-80 89 % of control | [16] 100 % of control | endpoint: mean survival time, dose: 25.0 mg/kg/injection, schedule: Q01DX005 (ip), vehicle: saline with Tween-80 101 % of control | [17] 89 % of control | endpoint: mean survival time, dose: 50.0 mg/kg/injection, schedule: Q01DX005 (ip), vehicle: saline with Tween-80 108 % of control | [18] 93 % of control | endpoint: mean survival time, dose: 50.0 mg/kg/injection, schedule: Q04DX002 (ip), vehicle: saline with Tween-80 97 % of control | endpoint: mean survival time, dose: 100.0 mg/kg/injection, schedule: Q01DX005 (ip), vehicle: saline with Tween-80 97 % of control | [6] 89 % of control | [9] 94 % of control

CC(=O)OC(OC(C)=O)c1cccc([N+](=O)[O-])c1
inactive: [1] 102 % of control | [3] 93 % of control | [4] 96 % of control

O=C1c2ccccc2C(=O)N1CCBr
inactive: [10] 102 % of control | [11] 109 % of control | [12] 111 % of control
